# Results reported in patent US20260285850A1, “SUBSTITUTED OXAZOLIDINONES AND IMIDAZOLINONES AS HERBICIDES” (FMC CORPORATION, priority 2023, published 2026).
# Tests used:
# Assay type in all cases: in vivo
# [1] = test system: kochia (Bassia scoparia); assay: Test A preemergence soil spray, visual injury rating 0-100; settings: 10 days
# Method in brief: (§1)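 Directed preemergence spray onto seeded soil or postemergence spray onto 2-10 cm plants (loam plus sand); compound carried in surfactant-containing non-phytotoxic solvent. Injury rated by eye after 10 d greenhouse growth; 0 = no effect, 100 = complete control.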
# [2] = test system: soybean (Glycine max); assay: as above; settings: 10 days
# Method in brief: as §1
# [3] = test system: green foxtail (Setaria viridis); assay: as above; settings: 10 days
# Method in brief: as §1
# [4] = test system: ragweed (common ragweed, Ambrosia artemisiifolia); assay: as above; settings: 10 days
# Method in brief: as §1
# [5] = test system: palmer (palmer amaranth, palmer pigweed, Amaranthus palmeri); assay: as above; settings: 10 days
# Method in brief: as §1
# [6] = test system: oat, wild (wild oat, Avena fatua); assay: as above; settings: 10 days
# Method in brief: as §1
# [7] = test system: wheat (Triticum aestivum); assay: as above; settings: 10 days
# Method in brief: as §1
# [8] = test system: blackgrass (Alopecurus myosuroides); assay: as above; settings: 10 days
# Method in brief: as §1
# [9] = test system: ryegrass, Italian (italian ryegrass, Lolium multiflorum); assay: as above; settings: 10 days
# Method in brief: as §1
# [10] = test system: barnyardgrass (Echinochloa crus-galli); assay: as above; settings: 10 days
# Method in brief: as §1
# [11] = test system: corn (Zea mays); assay: as above; settings: 10 days
# Method in brief: as §1
# [12] = test system: rice (Oryza sativa); assay: Test B flooded paddy test, visual plant response rating 0-100; settings: 250 g ai/ha, Flood, applied to paddy water, evaluated after 13 days
# Method in brief: (§2)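 Visual evaluation after 13 days. Water-applied treatment, 3 cm flood depth held constant, plants at 2-leaf stage at treatment.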
# [13] = test system: ducksalad (Heteranthera limosa); assay: as above; settings: 250 g ai/ha, Flood, applied to paddy water, evaluated after 13 days
# Method in brief: as §2
# [14] = test system: sedge, umbrella (small-flower umbrella sedge, Cyperus difformis); assay: as above; settings: 250 g ai/ha, Flood, applied to paddy water, evaluated after 13 days
# Method in brief: as §2
# [15] = test system: barnyardgrass (Echinochloa crusgalli); assay: as above; settings: 250 g ai/ha, Flood, applied to paddy water, evaluated after 13 days
# Method in brief: as §2
# [16] = test system: kochia (Bassia scoparia); assay: Test A postemergence application, visual injury rating 0-100
# Method in brief: as §1
# [17] = test system: soybean (Glycine max); assay: as above
# Method in brief: as §1
# [18] = test system: galium (catchweed bedstraw, Galium aparine); assay: as above
# Method in brief: as §1
# [19] = test system: green foxtail (Setaria viridis); assay: as above
# Method in brief: as §1
# [20] = test system: ragweed (common ragweed, Ambrosia artemisiifolia); assay: as above
# Method in brief: as §1
# [21] = test system: palmer (palmer amaranth, palmer pigweed, Amaranthus palmeri); assay: as above
# Method in brief: as §1
# [22] = test system: oat, wild (wild oat, Avena fatua); assay: as above
# Method in brief: as §1
# [23] = test system: horseweed (Erigeron canadensis); assay: as above
# Method in brief: as §1
# [24] = test system: wheat (Triticum aestivum); assay: as above
# Method in brief: as §1
# [25] = test system: blackgrass (Alopecurus myosuroides); assay: as above
# Method in brief: as §1
# [26] = test system: ryegrass, Italian (italian ryegrass, Lolium multiflorum); assay: as above
# Method in brief: as §1
# [27] = test system: barnyardgrass (Echinochloa crus-galli); assay: as above
# Method in brief: as §1
# [28] = test system: corn (Zea mays); assay: as above
# Method in brief: as §1
# [29] = 62 g ai/ha, 0 = no effect, 100 = complete control
# [30] = 62 g ai/ha, postemergence, 10 days, 0 = no effect, 100 = complete control
# [31] = Postemergence, 16 g ai/ha, greenhouse 10 days, 0 no effect, 100 complete control
compound,measurement,setting,value
CC(C)COC(=O)C1=CCC(NC(=O)C2(C)CN(c3cc(Cl)cc(Cl)c3)C(=O)O2)C1 (stereo not shown) [Compound 156],Kochia plant response rating,"[1]; 16 g ai/ha, 0 to 100 scale",20
same,Kochia plant response rating (0-100),[1]; [29],70
same,Soybean plant response rating,"[2]; 16 g ai/ha, 0 to 100 scale",0
same,Soybean plant response rating (0-100),[2]; [29],0
same,"Foxtail, Green plant response rating","[3]; 16 g ai/ha, 0 to 100 scale",40
same,"Foxtail, Green plant response rating (0-100)",[3]; [29],90
same,Ragweed plant response rating,"[4]; 16 g ai/ha, 0 to 100 scale",0
same,Ragweed plant response rating (0-100),[4]; [29],0
same,"Pigweed, Palmer plant response rating","[5]; 16 g ai/ha, 0 to 100 scale",20
same,"Pigweed, Palmer plant response rating (0-100)",[5]; [29],80
same,"Oat, Wild plant response rating","[6]; 16 g ai/ha, 0 to 100 scale",0
same,"Oat, Wild plant response rating (0-100)",[6]; [29],0
same,Wheat plant response rating,"[7]; 16 g ai/ha, 0 to 100 scale",10
same,Wheat plant response rating (0-100),[7]; [29],50
same,Blackgrass plant response rating,"[8]; 16 g ai/ha, 0 to 100 scale",0
same,Blackgrass plant response rating (0-100),[8]; [29],30
same,"Ryegrass, Italian plant response rating","[9]; 16 g ai/ha, 0 to 100 scale",0
same,"Ryegrass, Italian plant response rating (0-100)",[9]; [29],30
same,Barnyardgrass plant response rating,"[10]; 16 g ai/ha, 0 to 100 scale",0
same,Barnyardgrass plant response rating (0-100),[10]; [29],50
same,Corn plant response rating,"[11]; 16 g ai/ha, 0 to 100 scale",0
same,Corn plant response rating (0-100),[11]; [29],50
same,"Plant response rating, Rice (0 to 100 scale, 0 is no effect and 100 is complete control)",[12],45
same,"Plant response rating, Ducksalad (0 to 100 scale, 0 is no effect and 100 is complete control)",[13],75
same,"Plant response rating, Sedge, Umbrella (0 to 100 scale, 0 is no effect and 100 is complete control)",[14],90
same,"Plant response rating, Barnyardgrass (0 to 100 scale, 0 is no effect and 100 is complete control)",[15],55
same,Kochia plant response rating (0-100),[16]; [30],80
same,Kochia plant response rating (0 to 100 scale),[16]; [31],80
same,Soybean plant response rating (0-100),[17]; [30],60
same,Soybean plant response rating (0 to 100 scale),[17]; [31],50
same,Galium plant response rating (0-100),[18]; [30],80
same,Galium plant response rating (0 to 100 scale),[18]; [31],80
same,"Foxtail, Green plant response rating (0-100)",[19]; [30],90
same,"Foxtail, Green plant response rating (0 to 100 scale)",[19]; [31],80
same,Ragweed plant response rating (0-100),[20]; [30],50
same,Ragweed plant response rating (0 to 100 scale),[20]; [31],30
same,"Pigweed, Palmer plant response rating (0-100)",[21]; [30],90
same,"Pigweed, Palmer plant response rating (0 to 100 scale)",[21]; [31],90
same,"Oat, Wild plant response rating (0-100)",[22]; [30],70
same,"Oat, Wild plant response rating (0 to 100 scale)",[22]; [31],20
same,Horseweed plant response rating (0-100),[23]; [30],80
same,Horseweed plant response rating (0 to 100 scale),[23]; [31],30
same,Wheat plant response rating (0-100),[24]; [30],70
same,Wheat plant response rating (0 to 100 scale),[24]; [31],50
same,Blackgrass plant response rating (0-100),[25]; [30],90
same,Blackgrass plant response rating (0 to 100 scale),[25]; [31],70
same,"Ryegrass, Italian plant response rating (0-100)",[26]; [30],70
same,"Ryegrass, Italian plant response rating (0 to 100 scale)",[26]; [31],60
same,Barnyardgrass plant response rating (0-100),[27]; [30],100
same,Barnyardgrass plant response rating (0 to 100 scale),[27]; [31],100
same,Corn plant response rating (0-100),[28]; [30],100
same,Corn plant response rating (0 to 100 scale),[28]; [31],90
